In patent US7592347B2, “Piperazine derivates and their use for the treatment of neurological and psychiatric diseases” (Glaxo Group Limited, priority 2003, dated 2009):
Counter-ions that a name gives are not always drawn.

These molecules were tested against T1, histamine H3 receptor (Homo sapiens, UniProt Q9Y5N1) (assay: Histamine H3 functional antagonist assay ([35S]GTPγS SPA, membranes of CHO K1 cells expressing human H3)). Conditions: functional antagonism of histamine (0.3 μM) stimulated [35S]GTPγS binding, membranes of CHO K1 cells with human histamine H3.
T1 construct: expressed in transfected cells; host or cells: CHO K1 cells carrying pSwitch, transfected with pGeneH3 and induced with mifepristone; clone 3H3; membranes
T1 sequence (Q9Y5N1 whole entry): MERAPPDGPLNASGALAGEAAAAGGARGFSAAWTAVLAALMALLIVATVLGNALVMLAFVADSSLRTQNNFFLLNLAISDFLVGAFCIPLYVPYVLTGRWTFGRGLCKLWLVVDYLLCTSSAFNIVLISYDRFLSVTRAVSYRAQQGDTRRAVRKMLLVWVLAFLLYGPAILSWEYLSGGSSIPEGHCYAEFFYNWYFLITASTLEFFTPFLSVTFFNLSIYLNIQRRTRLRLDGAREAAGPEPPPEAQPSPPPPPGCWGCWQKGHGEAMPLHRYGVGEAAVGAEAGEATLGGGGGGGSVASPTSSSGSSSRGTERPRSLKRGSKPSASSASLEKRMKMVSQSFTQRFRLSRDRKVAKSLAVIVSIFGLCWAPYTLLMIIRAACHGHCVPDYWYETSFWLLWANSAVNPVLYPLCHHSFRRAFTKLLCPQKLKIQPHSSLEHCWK
Format: biochemical
Description: A membrane preparation containing histamine H3 receptors may be prepared in accordance with the following procedures:
Ligated DNA was transformed into competent DH5α E. coli host bacterial cells and plated onto Luria Broth (LB) agar containing Zeocin™ (an antibiotic which allows the selection of cells expressing the sh ble gene which is present on pGene and pSwitch) at 50 μg ml^−1. Colonies containing the re-ligated plasmid were identified by restriction analysis. DNA for transfection into mammalian cells was prepared from 250 ml cultures of the host bacterium containing the pGeneH3 plasmid and isolated using a DNA preparation kit (Qiagen Midi-Prep) as per manufacturers guidelines (Qiagen).
CHO K1 cells previously transfected with the pSwitch regulatory plasmid (InVitrogen) were seeded at 2×10e6 cells per T75 flask in Complete Medium, containing Hams F12 (GIBCOBRL, Life Technologies) medium supplemented with 10% v/v dialysed foetal bovine serum, L-glutamine, and hygromycin (100 μg ml^−1), 24 hours prior to use. Plasmid DNA was transfected into the cells using Lipofectamine plus according to the manufacturers guidelines (InVitrogen). 48 hours post transfection cells were placed into complete medium supplemented with 500 μg ml^−1 Zeocin™.
10-14 days post selection 10 nM Mifepristone (InVitrogen), was added to the culture medium to induce the expression of the receptor. […] Approximately 1×10e7 cells were examined for receptor expression by staining with a rabbit polyclonal antibody, 4a, raised against the N-terminal domain of the histamine H3 receptor, incubated on ice for 60 minutes, followed by two washes in sorting medium. […] Following two further washes with Sorting Medium, cells were filtered through a 50 μm Filcon™ (BD Biosciences) and then analysed on a FACS Vantage SE Flow Cytometer fitted with an Automatic Cell Deposition Unit. […] Positively stained cells were sorted as single cells into 96-well plates, containing Complete Medium containing 500 μg ml^−1 Zeocin™ and allowed to expand before reanalysis for receptor expression via antibody and ligand binding studies.
All steps of the protocol are carried out at 4° C. and with pre-cooled reagents. The cell pellet is resuspended in 10 volumes of buffer A2 containing 50 mM N-2-hydroxyethylpiperazine-N′-2-ethanesulfonic acid (HEPES)(pH 7.40) supplemented with 10e−4M leupeptin (acetyl-leucyl-leucyl-arginal; Sigma L2884), 25 μg/ml bacitracin (Sigma B0125), 1 mM ethylenediamine tetra-acetic acid (EDTA), 1 mM phenylmethylsulfonyl fluoride (PMSF) and 2×10e−6M pepstain A (Sigma). The cells are then homogenised by 2×15 second bursts in a 1 litre glass Waring blender, followed by centrifugation at 500 g for 20 minutes. The supernatant is then spun at 48,000 g.for 30 minutes. The pellet is resuspended in 4 volumes of buffer A2 by vortexing for 5 seconds, followed by homogenisation in a Dounce homogeniser (10-15 strokes). At this point the preparation is aliquoted into polypropylene tubes and stored at −70° C. […]
The plate is then incubated on a shaker at room temperature for 30 minutes followed by centrifugation for 5 minutes at 1500 rpm. The plate is read between 3 and 6 hours after completion of centrifuge run in a Wallac Microbeta counter on a 1 minute normalised tritium count protocol. Data is analysed using a 4-parameter logistic equation. Basal activity used as minimum i.e. histamine not added to well.
In the case of `CC(C)N1CCCN(C(=O)C2CCN(c3ccc(OC(F)F)cc3)CC2)CC1` [Example E59, 1-Isopropyl-4-[1-(4-difluoromethoxyphenyl)-piperidine-4-carbonyl]-[1,4]-diazepane], the Kb is reported as under 3.16 nM.
In the case of `CC(C)N1CCCN(C(=O)C2CCN(c3ccc(Oc4ccccc4)cc3)CC2)CC1` [Example E61, 1-Isopropyl-4-[1-(4-phenoxyphenyl)-piperidine-4-carbonyl]-[1,4]-diazepane], the Kb is reported as under 3.16 nM.
`COc1ccc(N2CCC(C(=O)N3CCCN(C(C)C)CC3)CC2)cn1` [Example E62, 1-Isopropyl-4-[1-(6-methoxypyridin-3-yl)-piperidine-4-carbonyl]-[1,4]-diazepane] showed a Kb of under 3.16 nM.
Work on `CC(C)N1CCCN(C(=O)C2CCN(c3ccc(C#N)c(F)c3F)CC2)CC1` [Example E63, 1-Isopropyl-4-[1-(4-cyano-2,3-difluorophenyl)-piperidine-4-carbonyl]-[1,4]-diazepane] yielded a Kb of under 3.16 nM.
Molecule `CC(C)N1CCCN(C(=O)C2CCN(c3ccc(C#N)cc3Cl)CC2)CC1` [Example E64, 1-Isopropyl-4-[1-(4-cyano-2-chlorophenyl)-piperidine-4-carbonyl]-[1,4]-diazepane] has a Kb of under 3.16 nM.
`N#Cc1ccc(N2CCC(C(=O)N3CCCN(C4CCC4)CC3)CC2)c(Cl)c1` [Example E65, 1-Cyclobutyl-4-[1-(4-cyano-2-chlorophenyl)-piperidine-4-carbonyl]-[1,4]-diazepane] gave a Kb of under 3.16 nM.
For `N#Cc1ccc(N2CCC(C(=O)N3CCCN(C4CCC4)CC3)CC2)cc1Cl` [Example E66, 1-Cyclobutyl-4-[1-(4-cyano-3-chlorophenyl)-piperidine4-carbonyl]-[1,4]-diazepane], the Kb was under 3.16 nM.
Work on `N#Cc1ccc(N2CCC(C(=O)N3CCCN(C4CCC4)CC3)CC2)cc1F` [Example E67, 1-Cyclobutyl-4-[1-(4-cyano-3-fluorophenyl)-piperidine4-carbonyl]-[1,4]-diazepane] yielded a Kb of under 3.16 nM.
Work on `N#Cc1ccc(N2CCC(C(=O)N3CCCN(C4CCC4)CC3)CC2)cc1C(F)(F)F` [Example E68, 1-Cyclobutyl-4-[1-(4-cyano-3-trifluoromethylphenyl)-piperidine4-carbonyl]-[1,4]-diazepane] yielded a Kb of under 3.16 nM.
With `CC(C)N1CCN(C(=O)C2CCN(c3ccc(C#N)cc3)CC2)C[C@@H]1C` [Example E70, (S)-1-Isopropyl-4-[1-(4-cyanophenyl)-piperidine-4-carbonyl]-2-methylpiperazine] the Kb was under 3.16 nM.
Work on `CC(C)N1CCN(C(=O)C2CCN(c3ccc(C#N)nc3)CC2)C[C@@H]1C` [Example E78, (S)-1-Isopropyl-4-[1-(6-cyanopyridin-3-yl)-piperidine-4-carbonyl]-2-methyl piperazine] yielded a Kb of under 3.16 nM.
`CC(C)N1CCN(C(=O)C2CCN(c3ccc(C(F)(F)F)nc3)CC2)C[C@@H]1C` [Example E79, (S)-1-Isopropyl-4-[1-(6-trifluoromethylpyridin-3-yl)-piperidine-4-carbonyl]-2-methyl piperazine] was tested, and the Kb was under 1 nM.
Molecule `CC(C)N1CCN(C(=O)C2CCN(c3ccc(C#N)cn3)CC2)C[C@@H]1C` [Example E86, (S)-1-Isopropyl-4-[1-(5-cyanopyridin-2-yl)-piperidine4-carbonyl]-2-methyl piperazine] has a Kb of under 3.16 nM.
For `CC(C)N1CCN(C(=O)C2CCN(c3cnc(C(F)(F)F)cn3)CC2)C[C@@H]1C` [Example E87, (S)-1-Isopropyl-4-[1-(5-trifluoromethyl-pyrazin-2-yl)-piperidine4-carbonyl]-2-methyl piperazine], the Kb was under 3.16 nM.
With `CC(C)N1CCN(C(=O)C2CCN(c3ccc(C(F)(F)F)nn3)CC2)C[C@@H]1C` [Example E88, (S)-1-Isopropyl-4-[1-(6-trifluoromethyl-pyridazin-3-yl)-piperidine-4-carbonyl]-2-methyl piperazine] the Kb was under 3.16 nM.
In the case of `CC(C)N1CCN(C(=O)C2CCN(c3ccc(-c4nnc(-c5ccccc5)o4)cc3)CC2)CC1` [Example E90, 1-Isopropyl-4-{1-[4-(5-phenyl-1,3,4-oxadiazol-2-yl)phenyl]-piperidine-4-carbonyl} piperazine], the Kb is reported as under 3.16 nM.
Work on `CC(C)N1CCN(C(=O)C2CCN(c3ccc4ncccc4c3)CC2)CC1` [Example E91, 1-Isopropyl-4-[1-(quinolin-6-yl)-piperidine4-carbonyl]piperazine] yielded a Kb of under 3.16 nM.
`CC(C)N1CCN(C(=O)C2CCN(c3ccc(C(F)(F)F)nc3)CC2)CC1` [Example E96, 1-Isopropyl-4-[1-(6-trifluoromethylpyridin-3-yl)-piperidine-4-carbonyl]-piperazine] showed a Kb of under 0.316 nM.
In the case of `O=C(C1CCN(c2ccc(C(F)(F)F)nc2)CC1)N1CCN(C2CCC2)CC1` [Example E97, 1-Cyclobutyl-4-[1-(6-trifluoromethylpyridin-3-yl)-piperidine-4-carbonyl]piperazine], the Kb is reported as under 3.16 nM.
`CC(C)N1CCN(C(=O)C2CCN(c3cnc(C(F)(F)F)cn3)CC2)CC1` [Example E102, 1-Isopropyl-4-[1-(5-trifluoromethyl-pyrazin-2-yl)-piperidine4-carbonyl]-piperazine] showed a Kb of under 3.16 nM.
`CC[C@H](C)N1CCN(C(=O)C2CCN(c3ccc(C#N)cc3)CC2)CC1` [Example E104] showed a Kb of under 3.16 nM.
For `CC(C)N1CCN(C(=O)C2CCN(c3ccc(C(=O)C4CC4)cc3)CC2)CC1` [Example E105, 1-Isopropyl-4-[1-(4-cyclopropylcarbonylphenyl)-piperidine4-carbonyl]-piperazine], the Kb was under 3.16 nM.
For `Cc1ccc2cc(N3CCC(C(=O)N4CCN(C(C)C)CC4)CC3)ccc2n1` [Example E118, 1-Isopropyl-4-[1-(2-methyl-quinolin-6-yl)-piperidine-4-carbonyl]-piperazine], the Kb was under 3.16 nM.
For `CC(C)N1CCN(C(=O)C2CCN(c3ccc(C#N)nc3)CC2)CC1` [Example E129, 1-Isopropyl-4-[1-(6-cyano-pyridin-3-yl)-piperidine-4-carbonyl]-piperazine], the Kb was under 3.16 nM.
`CC(C)N1CCCN(C(=O)C2CCN(c3ccc(C(F)(F)F)nc3)CC2)CC1` [Example E135, 1-Isopropyl-4-[1-(6-trifluoromethylpyridin-3-yl)-pipenidine-4-carbonyl]-[1,4]-diazepane, hydrochloride] gave a Kb of under 0.316 nM.
Work on `O=C(C1CCN(c2ccc(C(F)(F)F)nc2)CC1)N1CCCN(C2CCC2)CC1` [Example E136, 1-Cyclobutyl-4-[1-(6-trifluoromethylpyridin-3-yl)-piperidine4-carbonyl]-[1,4]-diazepane] yielded a Kb of under 3.16 nM.
Molecule `N#Cc1cc(N2CCC(C(=O)N3CCCN(C4CCC4)CC3)CC2)ccn1` [Example E137, 1-Cyclobutyl-4-[1-(2-cyanopyridin-4-yl)-piperidine-4-carbonyl]-[1,4]-diazepane] has a Kb of under 3.16 nM.
Molecule `CC(C)N1CCCN(C(=O)C2CCN(c3ccc(C(F)(F)F)nn3)CC2)CC1` [Example E138, 1-Isopropyl-4-[1-(6-trifluoromethylpyridazin-3-yl)-piperidine-4-carbonyl]-[1,4]-diazepane] has a Kb of under 3.16 nM.
In the case of `CC(C)N1CCCN(C(=O)C2CCN(c3cnc(C(F)(F)F)cn3)CC2)CC1` [Example E139, 1-Isopropyl-4-[1-(5-trifluoromethylpyrazin-2-yl)-piperidine4-carbonyl]-[1,4]-diazepane], the Kb is reported as under 3.16 nM.
`CC(=O)c1ccc(N2CCC(C(=O)N3CCCN(C(C)C)CC3)CC2)cc1` [Example E150, 1-Isopropyl-4-[1-(4-acetylphenyl)-piperidine-4-carbonyl]-[1,4]-diazepane] was tested, and the Kb was under 1 nM.
In the case of `CCC(=O)c1ccc(N2CCC(C(=O)N3CCCN(C(C)C)CC3)CC2)cc1` [Example E151, 1-Isopropyl-4-[1-(4-propanoylphenyl)-piperidine-4-carbonyl]-[1,4]-diazepane], the Kb is reported as under 1 nM.
`Cc1ncc(-c2ccc(N3CCC(C(=O)N4CCCN(C(C)C)CC4)CC3)cc2)o1` [Example E154, 1-Isopropyl-4-{1-[4-(2-methyl-1,3-oxazol-5-yl)phenyl]-piperidine4-carbonyl}-[1,4]-diazepane] was tested, and the Kb was under 3.16 nM.
